Bounds are passed on as bounds.

The assay has as its target T1, RORγ (Homo sapiens, UniProt P51449).
T1 construct: expressed in transfected cells; host or cells: 293FT cells (Invitrogen), expression vector pFN26A (Promega)
T1 sequence (P51449 269-508 limits assumed): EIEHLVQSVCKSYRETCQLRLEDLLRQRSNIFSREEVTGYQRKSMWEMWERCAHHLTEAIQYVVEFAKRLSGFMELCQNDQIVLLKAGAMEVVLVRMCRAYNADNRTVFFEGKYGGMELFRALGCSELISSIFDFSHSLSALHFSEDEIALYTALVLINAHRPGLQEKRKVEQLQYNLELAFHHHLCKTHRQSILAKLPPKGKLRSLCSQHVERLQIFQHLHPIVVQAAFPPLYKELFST
In words: RORγ GAL4 reporter gene assay. Conditions: inhibition of RORγ activity, GAL4-RORγ-LBD luciferase reporter in 293FT cells, overnight incubation; read-out: mean pIC50 (converted). Type of assay: cell-based. The method, then: Example inhibitors 1-166 were tested for their ability to inhibit RORγ activity in a RORγ GAL4 reporter gene assay. The assay procedure and results are described below.
RORγ GAL4 Reporter Gene Assay Description
A GAL4 one-hybrid reporter system employing luciferase readout was established to determine inhibition of RORγ in 293FT cells. The RORγ ligand-binding domain (LBD) was fused to the yeast GAL4 DNA binding domain (DBD) and placed under the control of the human cytomegalovirus (CMV) immediate early promoter, using expression vector pFN26A (Promega) and standard recombinant DNA cloning methods. To serve as a control in the assay, a similar vector was generated in which the GAL4-DBD was fused to Herpes simplex virus protein 16 (VP16), a constitutive transcriptional activator.
To monitor the inhibitory effect of compounds on RORγ, a transcriptional reporter construct was used. The pGL4.35 vector (Promega) contains nine copies of the GAL4 Upstream Activator Sequence (UAS). This sequence drives the transcription of the luciferase reporter gene luc2P in response to binding of a fusion protein containing the GAL4 DNA binding domain, as for example expressed by the GAL4-RORγ-LBD and GAL4-VP16 expression vectors described above. To allow a GAL4 fusion protein to drive the expression of the luciferase reporter, the pGL4.35 expression vector and the appropriate GAL4 fusion protein expression vector were bulk transfected in the 293FT cells using standard transfection techniques.
The day after transfection, cells were plated into 96 well plates, test compound was added and the plates were incubated overnight. Subsequently, the firefly luciferase activity was quantified using luciferase detection reagent and luminescence readout.
Detailed Assay Description
293FT cells (Invitrogen) were transfected with a GAL4 fusion protein expression vector (as described above) and the transcriptional reporter construct (pGL4.35, Promega). 60 μL of TransIT-293 transfection reagent (Mirus Bio) was added drop wise to 1500 μl Opti-MEM I Reduced Serum Medium (Invitrogen) and incubated at room temperature (RT) for 5 to 20 minutes. 1500 μL of this reagent mixture was added to 5 μg of GAL4 fusion protein expression vector and 5 μg of the transcriptional reporter construct, and incubated at RT for 20 minutes.
To harvest 293FT cells from a T75 flask, first the culture medium was taken off the cells. Subsequently, the cells were washed with Phosphate Buffered Saline (PBS) (Lonza), after which the PBS was removed. To dissociate the cells, 1 ml of TrypLE Express (Invitrogen) was added to the flask, followed by incubation at RT until the cells visually started to detach. Cells were collected in 5 mL of assay medium (DMEM culture medium (Lonza), 10% dialyzed FBS (Invitrogen) and Pen/Strep (Lonza)) to achieve a single cell suspension. 10×10^6 cells were spun down and re-suspended in 10 mL of assay medium. Subsequently, the cell suspension was added to the transfection mix tube, and then transferred as a whole to a T75 flask (Greiner), followed by overnight (16-24 hours) incubation at 37° C. and 5% CO2.
For compound screening, the cells were harvested (as described above) and counted. 13×10^6 cells were spun down, the supernatant was aspirated and the cells were re-suspended in 17.3 mL of assay medium obtaining a cell suspension of 0.75×10^6 cells/mL. 80 μL of cell suspension (60,000 cells) was plated per well into a white, flat bottom, tissue culture treated, 96 well screening plates (Greiner).
Test compounds were diluted, starting from a 10 mM dimethylsulfoxide (DMSO) stock solution, to serial dilutions in DMSO at 500× the final test concentration. Subsequently, these solutions were diluted to 5× the final test concentration in two 10-fold-dilution steps in assay medium. The final DMSO concentration of the 5× test compound solution was 1%. […]
(In general: A reporter such as luciferase makes a cellular process visible.)
Turning to `CC(C)(CO)N(C(=O)c1ccc(NC(=O)Cc2ccc(S(=O)(=O)CC3CC3)cc2)cc1)c1ccccc1` [Example 138, 4-[2-(4-cyclopropylmethanesulfonylphenyl)acetamido]-N-(1-hydroxy-2-methylpropan-2-yl)-N-phenylbenzamide], the IC50 was no more than 100 nM.
As to `CCCN(C(=O)c1ccc(NC(=O)Cc2ccc(S(=O)(=O)NC3CC3)cc2)cc1)c1ccccc1` [Example 22, 4-{2-[4-(cyclopropylsulfamoyl)phenyl]acetamido}-N-phenyl-N-propylbenzamide], the IC50 is no more than 100 nM.
For the compound `Cc1cc(NC(=O)Cc2ccc(S(=O)(=O)CC3CC3)cc2)ccc1C(=O)N(C)c1ccccc1F` [Example 165, 4-[2-(4-cyclopropylmethanesulfonylphenyl)acetamido]-N-(2-fluorophenyl)-N,2-dimethylbenzamide], the IC50 is no more than 100 nM.
As for `CCN(C(=O)c1ccc(NC(=O)Cc2ccc(S(=O)(=O)NC3CC3)cc2)cc1)c1ccccc1` [Example 43, 4-{2-[4-(cyclopropylsulfamoyl)phenyl]acetamido}-N-ethyl-N-phenylbenzamide], the IC50 was no more than 10 nM.
In the case of `CC(C)(C)N(C(=O)c1ccc(NC(=O)Cc2ccc(S(=O)(=O)CC3CC3)nc2)cc1)c1ccccc1` [Example 158, N-tert-butyl-4-[2-(6-cyclopropylmethanesulfonylpyridin-3-yl)acetamido]-N-phenylbenzamide], the IC50 is no more than 10 nM.
For `O=C(Cc1ccc(S(=O)(=O)CC2CC2)cc1)Nc1ccc(C(=O)N2CCCCc3ccccc32)cc1` [Example 63, 2-(4-cyclopropylmethanesulfonylphenyl)-N-[4-(2,3,4,5-tetrahydro-1H-1-benzazepine-1-carbonyl)phenyl]acetamide], the IC50 was no more than 10 nM.
For `CCCN(Cc1ccccc1)C(=O)c1ccc(NC(=O)Cc2ccc(S(=O)(=O)NC3CC3)cc2)cc1` [Example 23, N-benzyl-4-{2-[4-(cyclopropylsulfamoyl)phenyl]acetamido}-N-propylbenzamide], the IC50 was no more than 1000 nM.
`COC(=O)C(C)(C)N(C(=O)c1ccc(NC(=O)Cc2ccc(S(=O)(=O)CC3CC3)cc2)cc1)c1ccccc1` [Example 145, methyl 2-(1-{4-[2-(4-cyclopropylmethanesulfonylphenyl)acetamido]phenyl}-N-phenylformamido)-2-methylpropanoate]: the IC50 is no more than 10 nM.
For `Cc1ccc(N(C(=O)c2ccc(NC(=O)Cc3ccc(S(=O)(=O)NC4CC4)cc3)cc2)C(C)(C)CO)cc1` [Example 154, 4-{2-[4-(cyclopropylsulfamoyl)phenyl]acetamido}-N-(1-hydroxy-2-methylpropan-2-yl)-N-(4-methylphenyl)benzamide], the IC50 was no more than 100 nM.
Turning to `CC(C)(C)N(C(=O)c1ccc(NC(=O)Cc2ccc(S(=O)(=O)CC3CC3)cc2)cc1)c1ccccc1` [Example 130, N-tert-butyl-4-[2-(4-cyclopropylmethanesulfonylphenyl)acetamido]-N-phenylbenzamide], the IC50 is no more than 10 nM.
On to `CCN(C(=O)c1ccc(NC(=O)Cc2ccc(S(=O)(=O)NC3CC3)cc2)cc1)c1cccnc1` [Example 50, 4-{2-[4-(cyclopropylsulfamoyl)phenyl]acetamido}-N-ethyl-N-(pyridin-3-yl)benzamide], for which the IC50 is no more than 1000 nM.
Regarding `CC(C)CN(CC(C)C)C(=O)c1ccc(NC(=O)Cc2ccc(S(=O)(=O)CC3CC3)cc2)cc1` [Example 15, 4-[2-(4-cyclopropylmethanesulfonylphenyl)acetamido]-N,N-bis(2-methylpropyl)benzamide], the IC50 was no more than 100 nM.
Regarding `O=C(Cc1ccc(S(=O)(=O)CC2CC2)cc1)Nc1ccc(C(=O)N2CCc3ccccc3C2)cc1` [Example 55, 2-(4-cyclopropylmethanesulfonylphenyl)-N-[4-(1,2,3,4-tetrahydroisoquinoline-2-carbonyl)phenyl]acetamide], the IC50 was no more than 100 nM.
As for `O=C(Cc1ccc(S(=O)(=O)CC2CC2)cc1)Nc1ccc(C(=O)N(c2ccccc2)C2COC2)cc1` [Example 149, 4-[2-(4-cyclopropylmethanesulfonylphenyl)acetamido]-N-(oxetan-3-yl)-N-phenylbenzamide], the IC50 is no more than 10 nM.
Take `CCN(C(=O)c1ccc(NC(=O)Cc2ccc(S(=O)(=O)NC3CC3)cc2)cc1)c1cc(C)no1` [Example 95, 4-{2-[4-(cyclopropylsulfamoyl)phenyl]acetamido}-N-ethyl-N-(3-methyl-1,2-oxazol-5-yl)benzamide]: the IC50 is no more than 100 nM.
Turning to `CC(C)CN(C(=O)c1ccc(NC(=O)Cc2ccc(S(=O)(=O)CC3CC3)cc2)cc1)c1ccccc1` [Example 37, 4-[2-(4-cyclopropylmethanesulfonylphenyl)acetamido]-N-(2-methylpropyl)-N-phenylbenzamide], the IC50 was no more than 10 nM.
Consider `CC(C)CN(C)C(=O)c1ccc(NC(=O)Cc2ccc(S(=O)(=O)CC3CC3)cc2)cc1` [Example 8, 4-[2-(4-cyclopropylmethanesulfonylphenyl)acetamido]-N-methyl-N-(2-methylpropyl)benzamide], for which the IC50 is no more than 1000 nM.
Consider `COc1ccccc1N(C)C(=O)c1ccc(NC(=O)Cc2ccc(S(=O)(=O)CC3CC3)cc2)cc1Cl` [Example 125, 2-chloro-4-[2-(4-cyclopropylmethanesulfonylphenyl)acetamido]-N-(2-methoxyphenyl)-N-methylbenzamide], for which the IC50 is no more than 10 nM.
In the case of `CN(C(=O)c1ccc(NC(=O)Cc2ccc(S(=O)(=O)CC3CC3)cc2)cc1Cl)c1ccccn1` [Example 67, 2-chloro-4-[2-(4-cyclopropylmethanesulfonylphenyl)acetamido]-N-methyl-N-(pyridin-2-yl)benzamide], the IC50 was no more than 1000 nM.
Take `CN1CCN(C(=O)c2ccc(NC(=O)Cc3ccc(S(=O)(=O)CC4CC4)cc3)cc2)C(c2ccccc2)C1` (stereo not shown) [Example 57, 2-(4-cyclopropylmethanesulfonylphenyl)-N-[4-(4-methyl-2-phenylpiperazine-1-carbonyl)phenyl]acetamide]: the IC50 is no more than 100 nM.
Turning to `O=C(Cc1ccc(S(=O)(=O)CC2CC2)cc1)Nc1ccc(C(=O)N(CC(F)(F)F)c2ccccc2)c(Cl)c1` [Example 123, 2-chloro-4-[2-(4-cyclopropylmethanesulfonylphenyl)acetamido]-N-phenyl-N-(2,2,2-trifluoroethyl)benzamide], the IC50 is no more than 10 nM.
With `CCCN(C(=O)c1ccc(NC(=O)Cc2ccc(S(=O)(=O)NC3CC3)cc2)cc1)c1cccnc1` [Example 65, 4-{2-[4-(cyclopropylsulfamoyl)phenyl]acetamido}-N-propyl-N-(pyridin-3-yl)benzamide], the IC50 is no more than 1000 nM.
For `COc1ccccc1N(C)C(=O)c1ccc(NC(=O)Cc2ccc(S(=O)(=O)CC3CC3)cc2)cc1F` [Example 124, 4-[2-(4-cyclopropylmethanesulfonylphenyl)acetamido]-2-fluoro-N-(2-methoxyphenyl)-N-methylbenzamide], the IC50 is no more than 10 nM.
For `Cc1cccc(C)c1NC(=O)c1ccc(NC(=O)Cc2ccc(S(=O)(=O)CC3CC3)cc2)cc1` [Example 75, 4-[2-(4-cyclopropylmethanesulfonylphenyl)acetamido]-N-(2,6-dimethylphenyl) benzamide], the IC50 is no more than 100 nM.
Regarding `CC1(N(C(=O)c2ccc(NC(=O)Cc3ccc(S(=O)(=O)CC4CC4)cc3)cc2)c2ccccc2)CC1` [Example 142, 4-[2-(4-cyclopropylmethanesulfonylphenyl)acetamido]-N-(1-methylcyclopropyl)-N-phenylbenzamide], the IC50 was no more than 10 nM.
